Measured values as given in publication PMC12498190, “A Photocaged N‐Phosphonopiperidinone as a Selective Photo‐Cleavable DPP8/9 Inhibitor” (Chembiochem, 2025).

Target: T1, prolyl endopeptidase (PREP) (Homo sapiens, UniProt P48147)
T1 construct: endogenous in cells; host or cells: HEK293 (Cytion, Germany, 300192)
T1 sequence (P48147 1-710): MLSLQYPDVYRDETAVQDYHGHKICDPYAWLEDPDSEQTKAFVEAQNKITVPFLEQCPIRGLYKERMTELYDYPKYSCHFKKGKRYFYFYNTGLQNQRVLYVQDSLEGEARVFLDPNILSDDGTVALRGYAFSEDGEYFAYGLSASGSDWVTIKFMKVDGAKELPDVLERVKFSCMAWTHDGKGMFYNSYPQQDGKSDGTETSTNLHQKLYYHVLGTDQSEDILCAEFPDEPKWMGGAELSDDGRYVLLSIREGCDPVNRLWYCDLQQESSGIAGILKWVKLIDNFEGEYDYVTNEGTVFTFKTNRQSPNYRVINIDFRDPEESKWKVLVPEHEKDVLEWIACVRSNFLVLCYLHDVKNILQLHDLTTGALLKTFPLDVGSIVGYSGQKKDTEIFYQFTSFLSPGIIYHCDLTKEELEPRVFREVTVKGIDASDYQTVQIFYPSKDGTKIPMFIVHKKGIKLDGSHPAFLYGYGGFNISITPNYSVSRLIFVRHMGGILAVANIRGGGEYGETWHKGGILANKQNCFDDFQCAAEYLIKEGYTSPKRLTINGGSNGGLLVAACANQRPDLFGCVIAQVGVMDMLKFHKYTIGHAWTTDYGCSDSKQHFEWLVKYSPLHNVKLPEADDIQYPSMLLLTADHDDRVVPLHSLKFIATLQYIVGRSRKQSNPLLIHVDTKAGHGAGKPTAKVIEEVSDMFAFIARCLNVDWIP
Assay: In vitro gel-based competitive ABPP in HEK293 cell lysates, 70 kDa band
Settings: HEK293 lysate; 10 µM competitor, 30 min; 10 µM 2; green light 5 min
Procedure: Therefore, HEK293 cell lysates were pre‐incubated with 10 µM 5 or DMSO vehicle control for 30 min, followed by a labeling reaction with 2 µM of the serine hydrolase‐specific ABP fluorophosphonate‐alkyne (≡FP) or 10 µM 2 (Figure 2B). […] Of note, this band has been previously assigned as DPP9 (DPP8 would migrate in the same range, but is only expressed at low levels in the used cell line and therefore cannot be visualized by this approach).^[ [36] ^, [37] ^] […] Again, this labeling was observed regardless of prior irradiation. Subsequently, the competitive labeling experiment was conducted by pre‐incubation with compound 5, with or without subsequent irradiation.
Figure 2 Competitive ABPP with photo‐cleavable inhibitor 5 in HEK293 cells. […] HEK293 cells were irradiated with a green LED lamp in the presence of 0.5% DMSO for 5 min (‘light’), and cell viability was measured after 24 h. […] For both compounds, cell viability was measured under ‘dark’ (not irradiated) and ‘light’ (irradiated for 5 min with a green LED lamp after the addition of the inhibitor) conditions. […]
For in vitro ABPP, cell lysates were generated from HEK293 cells grown on a 10 cm tissue dish. […] The cell lysates were cleared via centrifugation (30 min, 20,817 × g, 4 °C), and protein concentration was determined with a modified Bradford assay using Roti‐Nanoquant (Carl Roth, Germany). […]

CCCCCc1ccc(SCCP(=O)(OCC)N2CCC[C@H](NC(=O)OCC3=C4C(C)=CC(C)=[N+]4[B-](C)(C)n4c(C)cc(C)c43)C2=O)cc1 (stereo partly shown) [Compound 5]
Competition of PREP band labeling by ABP 2 (in words): slight reduction
